Laboratory results as given in PMC3530961 (Journal of Medicinal Chemistry, 2012).

Experiments:
recombinant PfTMPK [1] = biological target: T1, recombinant PfTMPK (Plasmodium falciparum, UniProt Q8I4S1); assay: PfTMPK inhibition, coupled assay with pyruvate kinase and lactate dehydrogenase; type: biochemical
T1 sequence (Q8I4S1 1-210): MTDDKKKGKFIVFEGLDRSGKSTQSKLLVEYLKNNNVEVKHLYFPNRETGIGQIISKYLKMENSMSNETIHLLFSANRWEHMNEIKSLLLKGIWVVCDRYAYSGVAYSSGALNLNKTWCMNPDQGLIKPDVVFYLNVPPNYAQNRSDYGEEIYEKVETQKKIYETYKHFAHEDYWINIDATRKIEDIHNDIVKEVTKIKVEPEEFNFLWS

P. falciparum 3D7 = assay: growth inhibition of P. falciparum, SYBR green assay; type: cell-based, Plasmodium falciparum
[2] = plasma protein binding by equilibrium dialysis; type: in vitro ADME, mouse; conditions: for plasma protein binding (% bound): female CD1 mouse plasma, equilibrium dialysis 5 h, 37 °C
intrinsic clearance = type: in vitro ADME, mouse; conditions: for microsomal stability (CLi): female CD1 mouse liver microsomes, 0.5 µM compound; for microsomal stability / in vitro DMPK properties, in words: hepatic microsomes
recombinant PfTMPK [3] = biological target: T1, recombinant PfTMPK; conditions: read-out: Km of PfTMPK for TMP; substrate constant; cited from earlier work

Cc1cn([C@@H]2C[C@H](O)[C@@H](CNS(=O)(=O)c3ccc([N+](=O)[O-])cc3)O2)c(=O)[nH]c1=O [Compound 9]
inhibitory activity against PfTMPK, in words (recombinant PfTMPK [1]): no or very low inhibitory activity

Cc1cn([C@@H]2C[C@H](O)[C@@H](CNS(=O)(=O)c3ccc4ccccc4c3)O2)c(=O)[nH]c1=O [Compound 10]
inhibitory activity against PfTMPK, in words (recombinant PfTMPK [1]): no or very low inhibitory activity

Cc1cn([C@@H]2C[C@H](O)[C@@H](CNC(=O)c3ccc4ccccc4c3)O2)c(=O)[nH]c1=O [Compound 11]
inhibitory activity against PfTMPK, in words (recombinant PfTMPK [1]): no or very low inhibitory activity

Cc1cn([C@@H]2C[C@H](O)[C@@H](CNC(=O)c3ccc([N+](=O)[O-])cc3)O2)c(=O)[nH]c1=O [Compound 12]
inhibitory activity against PfTMPK, in words (recombinant PfTMPK [1]): no or very low inhibitory activity

Cc1cn([C@@H]2C[C@H](O)[C@@H](CNCc3ccc([N+](=O)[O-])cc3)O2)c(=O)[nH]c1=O [Compound 13]
inhibitory activity against PfTMPK, in words (recombinant PfTMPK [1]): no or very low inhibitory activity

COc1ccc(NC(=O)NC[C@H]2O[C@H](n3cc(C)c(=O)[nH]c3=O)C[C@@H]2O)cc1 [Compound 26]
increase in potency against the parasite compared to compound 17 (P. falciparum 3D7; ratio of EC50 values versus starting compound 17): 10 fold

Cc1cn([C@H]2C[C@H](O)[C@@H](CNS(=O)(=O)c3ccc([N+](=O)[O-])cc3)O2)c(=O)[nH]c1=O [Compound 34]
inhibitory activity against PfTMPK, in words (recombinant PfTMPK [1]): no or very low inhibitory activity

Cc1cn([C@H]2C[C@H](O)[C@@H](CNS(=O)(=O)c3ccc4ccccc4c3)O2)c(=O)[nH]c1=O [Compound 35]
inhibitory activity against PfTMPK, in words (recombinant PfTMPK [1]): no or very low inhibitory activity

Cc1cn([C@H]2C[C@H](O)[C@@H](CNC(=O)c3ccc4ccccc4c3)O2)c(=O)[nH]c1=O [Compound 36]
inhibitory activity against PfTMPK, in words (recombinant PfTMPK [1]): no or very low inhibitory activity

Cc1cn([C@H]2C[C@H](O)[C@@H](CNC(=O)c3ccc([N+](=O)[O-])cc3)O2)c(=O)[nH]c1=O [Compound 37]
inhibitory activity against PfTMPK, in words (recombinant PfTMPK [1]): no or very low inhibitory activity

Cc1cn([C@H]2C[C@H](O)[C@@H](CNCc3ccc([N+](=O)[O-])cc3)O2)c(=O)[nH]c1=O [Compound 38]
inhibitory activity against PfTMPK, in words (recombinant PfTMPK [1]): no or very low inhibitory activity

Cc1cn([C@@H]2C[C@H](O)[C@@H](CNC(=O)Nc3ccc(-c4ccccc4)cc3)O2)c(=O)[nH]c1=O [Compound 57]
plasma protein binding (% bound) [2]: 92.0 % bound | microsomal stability (CLi) (intrinsic clearance): 1.9 mL/min/g | microsomal stability / in vitro DMPK properties, in words (intrinsic clearance): good in vitro DMPK properties | activity against the parasite, in words (P. falciparum 3D7): sub-micromolar activity

Cc1cn([C@@H]2C[C@H](O)[C@@H](CNC(=O)Nc3ccc(OCc4ccccc4)cc3)O2)c(=O)[nH]c1=O [Compound 60]
plasma protein binding (% bound) [2]: 81.2 % bound | microsomal stability (CLi) (intrinsic clearance): 3 mL/min/g | microsomal stability / in vitro DMPK properties, in words (intrinsic clearance): good in vitro DMPK properties | activity against the parasite, in words (P. falciparum 3D7): sub-micromolar activity

Cc1cn([C@@H]2C[C@H](O)[C@@H](CNC(=O)Nc3ccc(N4CCCCC4)cc3)O2)c(=O)[nH]c1=O [Compound 63]
unbound fraction in plasma, in words [2]: particularly large unbound fraction | plasma protein binding (% bound) [2]: 52.3 % bound | microsomal stability (CLi) (intrinsic clearance): 0.5 mL/min/g | microsomal stability / in vitro DMPK properties, in words (intrinsic clearance): good in vitro DMPK properties | activity against the parasite, in words (P. falciparum 3D7): sub-micromolar activity

Cc1cn([C@@H]2C[C@H](O)[C@@H](CNC(=O)Nc3ccc(Oc4ccccc4)cc3)O2)c(=O)[nH]c1=O [Compound 66]
plasma protein binding (% bound) [2]: 90.5 % bound | microsomal stability (CLi) (intrinsic clearance): 1.8 mL/min/g | microsomal stability / in vitro DMPK properties, in words (intrinsic clearance): good in vitro DMPK properties | activity against the parasite, in words (P. falciparum 3D7): sub-micromolar activity

Cc1cn([C@@H]2C[C@H](O)[C@@H](CNC(=O)Nc3ccc(OCc4ccccc4Cl)cc3)O2)c(=O)[nH]c1=O [Compound 84, N-(5′-Deoxy-α-thymidin-5′-yl)-N′-(4-(2-chlorobenzyloxy)phenyl)urea]
plasma protein binding (% bound) [2]: 94.1 % bound | microsomal stability (CLi) (intrinsic clearance): 6 mL/min/g | microsomal stability / in vitro DMPK properties, in words (intrinsic clearance): rapid turnover | activity against the parasite, in words (P. falciparum 3D7): sub-micromolar activity

Cc1cn([C@@H]2C[C@H](O)[C@@H](CNC(=O)Nc3ccc(OCc4cccc(Cl)c4)cc3)O2)c(=O)[nH]c1=O [Compound 85, N-(5′-Deoxy-α-thymidin-5′-yl)-N′-(4-(3-chlorobenzyloxy)phenyl)urea]
activity against the parasite, in words (P. falciparum 3D7): sub-micromolar activity

Cc1cn([C@@H]2C[C@H](O)[C@@H](CNC(=O)Nc3ccc(OCc4ccc(Cl)cc4)cc3)O2)c(=O)[nH]c1=O [Compound 86, N-(5′-Deoxy-α-thymidin-5′-yl)-N′-(4-(4-chlorobenzyloxy)phenyl)urea]
activity against the parasite, in words (P. falciparum 3D7): sub-micromolar activity

COc1ccc(COc2ccc(NC(=O)NC[C@H]3O[C@H](n4cc(C)c(=O)[nH]c4=O)C[C@@H]3O)cc2)cc1 [Compound 87, N-(5′-Deoxy-α-thymidin-5′-yl)-N′-(4-(4-methyoxybenzyloxy)phenyl)urea]
activity against the parasite, in words (P. falciparum 3D7): sub-micromolar activity

Cc1cn([C@H]2C[C@H](O)[C@@H](CNC(=O)Nc3ccc(OCc4ccccc4Cl)cc3)O2)c(=O)[nH]c1=O [Compound 89]
activity against the parasite, in words (P. falciparum 3D7): sub-micromolar activity | drop in activity of β-derivative relative to α-derivative 84 (P. falciparum 3D7): 20 fold

Cc1cn([C@H]2C[C@H](O)[C@@H](COP(=O)(O)O)O2)c(=O)[nH]c1=O [TMP, thymidine monophosphate]
Km (recombinant PfTMPK [3]): 11 µM
